According to patent US6329547A, “Vinylbenzene derivatives” (Santen Pharmaceutical Co., Ltd., priority 1998, dated 2001):

Assays:
[1] = system: bovine cultured trabecular meshwork cells; assay: Effects on morphology of trabecular meshwork cells (change in cell area by image analysis); type: cell-based; details: Bos taurus, 3 h, 37° C., three hours, read-out: EC50 (concentration required to reduce the cell area of the trabecular meshwork cells by 50%)
From the text: A possibility has been reported that drugs having effects of increasing aqueous humor outflow can be found by evaluating effects of drugs on morphology of cultured trabecular meshwork cells (Invest. Ophthalmol. Vis. Sci., 33, 2631-2640 (1992)). Accordingly, effects of the present compounds on morphology of bovine cultured trabecular meshwork cells were studied in the similar manner to the method described in the above-mentioned literature. Experimental Method Morphological changes in bovine cultured trabecular meshwork cells by adding the present compounds were quantitatively evaluated by image analysis. […] Bovine trabecular meshwork cells (passage number 1 to 5) cultured in a basal medium for mammalian cell culture d-MEM (Dulbecco's Modified Eagle Medium, manufactured by Gibco Co., Ltd.) containing fetal bovine serum (10%), amphotericin B (2.5 μg/ml) and gentamicin (50 μg/ml) were treated with a trypsin-EDTA solution (0.05% trypsin, 0.53 mM EDTA·4 Na) 24 hours before the later drug treatment and seeded in a 24-well plate (10^4 cells/well). Twelve hours before the later drug treatment, the cells were washed with phosphate-buffered physiological saline, and then the medium was replaced by D-MEM containing amphotericin B (2.5 μg/ml) and gentamicin (50 μg/ml) (hereinafter referred to as "medium A"). […] A test compound was dissolved in dimethyl sulfoxide (DMSO), and the medium A was added to the solution, followed by sterilizing the solution by filtration. The medium A was further added to the solution to dilute it at a prescribed concentration. This diluted solution was maintained isothermally under a 5% carbon dioxide gas atmosphere at 37° C. for one hour, from one hour before the later drug treatment to prepare a test compound solution. Method of Measurement First, cells were photographed using a well-scanner one hour before the drug treatment. Next, the medium of the cells was replaced by the test compound solution, and the cells were treated with the drug and incubated under a 5% carbon dioxide gas atmosphere at 37° C. for three hours. Then, the same cells as those photographed one hour before the drug treatment were photographed using the well-scanner. Image Analysis Photographed cell images were incorporated from the photographs into an image analysis system with a CCD camera (manufactured by […] Co., Ltd.). Outlines of the incorporated cell images were traced, and areas were measured. Degrees of the morphological changes made by the test compounds on the trabecular meshwork cells are expressed by the following rates of changes in areas (%).

[2] = system: laser-induced high intraocular pressure monkey models (intraocular pressure); assay: Intraocular pressure-lowering effects by instillation using laser-induced high intraocular pressure animal models; type: in vivo, cynomolgus monkey; details: for Intraocular pressure change difference: 0.3% solution instilled twice a day, six hours after morning instillation, vs vehicle, average of five eyes
From the text: A method of evaluating intraocular pressure-lowering effects of the drugs by instilling them into laser-induced high intraocular pressure monkey models has been reported (Arch. Opththalmol., 105, 249-252 (1987)). Accordingly, intraocular pressure-lowering effects by instilling the present compound were studied in the similar manner to the method described in the above-mentioned literature.
Male cynomolgus monkeys weighing 5 to 6 kg were used for experiment. Five eyes of four monkeys of which intraocular pressure had been elevated by irradiating trabecular meshwork of the monkeys at 100 to 150 spots every one week with an argon laser (Coherent Radiation, Models 800) were used. Laser irradiation conditions were set at 1000 mW and 0.2 sec.
Preparation of Test Compound Solution
A test compound was dissolved in purified water, then concentrated glycerin and sodium chloride were added to the solution to adjust osmotic pressure to 1, and 0.1 M aqueous sodium hydroxide solution was added thereto to adjust pH to 7.4 and to prepare a 0.3% solution. Then, the solution was sterilized by filtration to prepare a test compound solution.
Method of Administering Drugs
First, in order to study effects of a vehicle on intraocular pressure, only vehicle was instilled twice a day (at 10 a.m. and 5 p.m.) for one week continuously. Then, the test compound solution was instilled twice a day (at 10 a.m. and 5 p.m.) for one week continuously.
Intraocular pressure was measured with an applanation tonometer before administering the drug and a prescribed period after the instillation. Chlorpromazine (1 mg/kg) was administered intramuscularly to the cynomolgus monkey one hour before the measurement to sedate the monkey, one drop of a 0.4% oxybuprocaine hydrochloride eyedrops, which is a local anesthetic, was instilled into the monkey, and then the intraocular pressure was measured.
Intraocular pressure change difference (mmHg)=[IOP(D-6)-IOP(D-0)]-[IOP(V-6)-IOP(V-0)]
IOP(D-6): Intraocular pressure measured six hours after the morning instillation of the test compound solution
IOP(D-0): Intraocular pressure measured before administering the test compound solution
IOP(V-6): Intraocular pressure measured six hours after the morning instillation of the vehicle
IOP(V-0): Intraocular pressure measured before administering the vehicle

[3] = system: cynomolgus monkeys (intraocular pressure); assay: Intraocular pressure-lowering effects by anterior chamber administration; type: in vivo, cynomolgus monkey; details: 10 μl of 10^-3 M, 1% DMSO into anterior chamber, vehicle in other eye
Description: Healthy male cynomolgus monkeys weighing 4.0 to 7.0 kg and being four to seven years old were used as experimental animals.
A test compound to be used was dissolved in dimethyl sulfoxide (DMSO), and then phosphate-buffered physiological saline was added to the solution to dilute it at a prescribed concentration (10^-3 M, 1% DMSO), followed by sterilizing the solution by filtration to prepare a test compound solution.
Only vehicle was administered into the other eye.
The intraocular pressure was measured with an applanation tonometer immediately before and prescribed periods after administering the test compound. […]
IOP(D-t): Intraocular pressure of the eye into which the test compound was administered, measured (t) hours after administering the test compound
IOP(D-0): Intraocular pressure of the eye into which the test compound was administered, measured immediately before administering the test compound
IOP(V-t): Intraocular pressure of the eye into which the vehicle was administered, measured (t) hours after administering the vehicle
IOP(V-0): Intraocular pressure of the eye into which the vehicle was administered, measured immediately before administering the vehicle

[4] = system: trabecular meshwork cells; details: Japanese Examined Patent Publication No. 13013/1995; cited from earlier work

C=C(C(=O)c1ccc(/C=C/C(=O)O)cc1)c1c(F)c(F)c(F)c(F)c1F [Compound No. 8-1, 4-[2-(2,3,4,5,6-Pentafluorophenyl)acryloyl]cinnamic acid]
EC50 [1]: 660 nM

C=C(C(=O)c1ccc(/C=C/C(=O)O)cc1)c1ccc([N+](=O)[O-])cc1 [Compound No. 8-2, 4-[2-(4-Nitrophenyl)acryloyl]cinnamic acid]
EC50 [1]: 1700 nM

C=C(C(=O)c1ccc(/C=C/C(=O)O)cc1)c1ccccc1 [Compound No. 8-7, 4-(2-Phenylacryloyl)cinnamic acid]
Intraocular pressure change difference ([2]; 1st day): +5.8 mmHg
Intraocular pressure change difference ([2]; 2nd day): -7.6 mmHg
Intraocular pressure change difference ([2]; 3rd day): -6.6 mmHg
Intraocular pressure change difference ([2]; 4th day): -1.2 mmHg
Intraocular pressure change difference ([2]; 5th day): -6.6 mmHg
Intraocular pressure change difference ([2]; 6th day): -8.6 mmHg
Intraocular pressure change difference ([2]; 7th day): -2.8 mmHg
intraocular pressure-lowering effect (in words) ([2]; instillation, 0.3% solution twice a day for one week): excellent intraocular pressure-lowering effect
disorder in an anterior segment of the eye ([2]; throughout all instillation periods, 0.3% solution twice a day for one week): No disorder was recognized in an anterior segment of the eye
Maximum intraocular pressure-lowering value ([3]; average value of six samples): 7.0 mmHg
EC50 [1]: 810 nM

C=C(C(=O)c1ccc(/C=C(\C)C(=O)O)cc1)c1ccccc1 [Compound No. 8-9, α-Methyl-4-(2-phenylacryloyl)cinnamic acid]
EC50 [1]: 3900 nM

C=C(C(=O)c1ccc(/C(C)=C/C(=O)O)cc1)c1ccccc1 [Compound No. 8-10, β-Methyl-4-(2-phenylacryloyl)cinnamic acid]
EC50 [1]: 2900 nM

C=C(CC)C(=O)c1ccc(OCC(=O)O)c(Cl)c1Cl [Ethacrynic acid, reference compound]
Maximum intraocular pressure-lowering value ([3]; average value of five samples): 2.0 mmHg
effect on intraocular pressure and trabecular meshwork cells reported in the literature [4]: lowering intraocular pressure by making a morphological change in trabecular meshwork cells and increasing the rate of aqueous humor outflow
EC50 [1]: 62000 nM
